Species on record: Rattus norvegicus
Assay: Open TG-GATES - Regimen: Single
Type: toxicity, organism-based, Sprague-Dawley
Parameters: regimen Single, gender Male, age 6 weeks
Details: in vivo, po, 100 mg/kg, route gavage, dose level High; for APTT / Bas / Eos / Fbg / Hb / Ht / Lym / MCH / MCHC / MCV / Mono / Neu / PT / Plat / RBC / Ret / WBC: tissue Blood; for KIDNEY_L / KIDNEY_R / KIDNEY_TOTAL: tissue Kidney; for LIVER: tissue Liver; for A/G / ALP / ALT / AST / BUN / CRE / Ca / Cl / DBIL / GLC / IP / K / LDH / Na / PL / RALB / TBIL / TC / TG / TP / gamma-GTP: tissue Plasma

CCCc1cc(=O)[nH]c(=S)[nH]1 [PROPYLTHIOURACIL]
TERMINAL_BW (3 h): 180.9 g
APTT (3 h): 15.7 s
Bas (3 h): 0%
Eos (3 h): 0.6%
Fbg (3 h): 210 mg/dL
Hb (3 h): 13.3 g/dL
Ht (3 h): 39.7%
Lym (3 h): 82.6%
MCH (3 h): 21.7 pg
MCHC (3 h): 33.3%
MCV (3 h): 65.1 fL
Mono (3 h): 5.8%
Neu (3 h): 10.8%
PT (3 h): 12.9 s
Plat (3 h): 99.3 x10_4/uL
RBC (3 h): 611.2 x10_4/ul
Ret (3 h): 9.7%
WBC (3 h): 96.7 x10_2/uL
KIDNEY_L (3 h): 0.8 g
KIDNEY_R (3 h): 0.8 g
KIDNEY_TOTAL (3 h): 1.6 g
LIVER (3 h): 8.3 g
A/G (3 h): 1.9
ALP (3 h): 858.8 IU/L
ALT (3 h): 38 IU/L
AST (3 h): 70.2 IU/L
BUN (3 h): 12.6 mg/dL
CRE (3 h): 0.4 mg/dL
Ca (3 h): 10.9 mg/dL
Cl (3 h): 105 meq/L
DBIL (3 h): 0.03 mg/dL
GLC (3 h): 189.4 mg/dL
IP (3 h): 10.9 mg/dL
K (3 h): 4.2 meq/L
LDH (3 h): 141 IU/L
Na (3 h): 138.4 meq/L
PL (3 h): 138 mg/dL
RALB (3 h): 3.7 g/dL
TBIL (3 h): 0.3 mg/dL
TC (3 h): 83.4 mg/dL
TG (3 h): 27 mg/dL
TP (3 h): 5.6 g/dL
gamma-GTP (3 h): 2 IU/L
TERMINAL_BW (6 h): 176.2 g
APTT (6 h): 16.5 s
Bas (6 h): 0%
Eos (6 h): 0.6%
Fbg (6 h): 213.2 mg/dL
Hb (6 h): 13.2 g/dL
Ht (6 h): 39.9%
Lym (6 h): 76%
MCH (6 h): 21.6 pg
MCHC (6 h): 33.2%
MCV (6 h): 65 fL
Mono (6 h): 5.2%
Neu (6 h): 18.2%
PT (6 h): 12.8 s
Plat (6 h): 106.5 x10_4/uL
RBC (6 h): 612.8 x10_4/ul
Ret (6 h): 9.9%
WBC (6 h): 77.1 x10_2/uL
KIDNEY_L (6 h): 0.8 g
KIDNEY_R (6 h): 0.8 g
KIDNEY_TOTAL (6 h): 1.6 g
LIVER (6 h): 7.5 g
A/G (6 h): 2.1
ALP (6 h): 762.4 IU/L
ALT (6 h): 27.8 IU/L
AST (6 h): 64 IU/L
BUN (6 h): 11.4 mg/dL
CRE (6 h): 0.4 mg/dL
Ca (6 h): 11 mg/dL
Cl (6 h): 105.4 meq/L
DBIL (6 h): 0.048 mg/dL
GLC (6 h): 186.8 mg/dL
IP (6 h): 10.5 mg/dL
K (6 h): 4.6 meq/L
LDH (6 h): 139.2 IU/L
Na (6 h): 139 meq/L
PL (6 h): 136.6 mg/dL
RALB (6 h): 3.8 g/dL
TBIL (6 h): 0.4 mg/dL
TC (6 h): 78.8 mg/dL
TG (6 h): 23 mg/dL
TP (6 h): 5.6 g/dL
gamma-GTP (6 h): 2 IU/L
TERMINAL_BW (9 h): 173.6 g
APTT (9 h): 15.9 s
Bas (9 h): 0%
Eos (9 h): 1.2%
Fbg (9 h): 207.4 mg/dL
Hb (9 h): 12.9 g/dL
Ht (9 h): 38.8%
Lym (9 h): 73.6%
MCH (9 h): 21.7 pg
MCHC (9 h): 33.3%
MCV (9 h): 65.1 fL
Mono (9 h): 8.2%
Neu (9 h): 17.2%
PT (9 h): 12.8 s
Plat (9 h): 110.6 x10_4/uL
RBC (9 h): 597.2 x10_4/ul
Ret (9 h): 9.9%
WBC (9 h): 65.2 x10_2/uL
KIDNEY_L (9 h): 0.8 g
KIDNEY_R (9 h): 0.8 g
KIDNEY_TOTAL (9 h): 1.6 g
LIVER (9 h): 7 g
A/G (9 h): 1.9
ALP (9 h): 879.2 IU/L
ALT (9 h): 31.2 IU/L
AST (9 h): 68 IU/L
BUN (9 h): 13.6 mg/dL
CRE (9 h): 0.4 mg/dL
Ca (9 h): 10.8 mg/dL
Cl (9 h): 108 meq/L
DBIL (9 h): 0.008 mg/dL
GLC (9 h): 186.6 mg/dL
IP (9 h): 10.4 mg/dL
K (9 h): 4.8 meq/L
LDH (9 h): 176.8 IU/L
Na (9 h): 139.4 meq/L
PL (9 h): 141.4 mg/dL
RALB (9 h): 3.6 g/dL
TBIL (9 h): 0.4 mg/dL
TC (9 h): 83.2 mg/dL
TG (9 h): 28 mg/dL
TP (9 h): 5.5 g/dL
gamma-GTP (9 h): 1.4 IU/L
TERMINAL_BW (24 h): 186.8 g
APTT (24 h): 15.6 s
Bas (24 h): 0%
Eos (24 h): 1%
Fbg (24 h): 217 mg/dL
Hb (24 h): 13.1 g/dL
Ht (24 h): 39.5%
Lym (24 h): 77.6%
MCH (24 h): 21.7 pg
MCHC (24 h): 33%
MCV (24 h): 65.7 fL
Mono (24 h): 7.2%
Neu (24 h): 14.6%
PT (24 h): 12.2 s
Plat (24 h): 108.5 x10_4/uL
RBC (24 h): 601.8 x10_4/ul
Ret (24 h): 9.3%
WBC (24 h): 115.2 x10_2/uL
KIDNEY_L (24 h): 0.9 g
KIDNEY_R (24 h): 0.9 g
KIDNEY_TOTAL (24 h): 1.7 g
LIVER (24 h): 9.9 g
A/G (24 h): 1.8
ALP (24 h): 1169.8 IU/L
ALT (24 h): 42.6 IU/L
AST (24 h): 69.2 IU/L
BUN (24 h): 17.4 mg/dL
CRE (24 h): 0.5 mg/dL
Ca (24 h): 11.2 mg/dL
Cl (24 h): 106.8 meq/L
DBIL (24 h): 0.014 mg/dL
GLC (24 h): 175.2 mg/dL
IP (24 h): 8.1 mg/dL
K (24 h): 5 meq/L
LDH (24 h): 192.4 IU/L
Na (24 h): 139.8 meq/L
PL (24 h): 170.6 mg/dL
RALB (24 h): 3.7 g/dL
TBIL (24 h): 0.3 mg/dL
TC (24 h): 97.8 mg/dL
TG (24 h): 107 mg/dL
TP (24 h): 5.7 g/dL
gamma-GTP (24 h): 1.2 IU/L
